Several values for one entry are separate records, joined by “and”; a condition that tells them apart may be missing. Equal entries are not always repeated. Toxic doses and inconclusive results are not listed.

The text below walks through data of PubChem BioAssay AID330 (DTP/NCI, 2004).

This experiment deals with P388 leukemia ip, CD2F1 mice, survival T/C. Briefly: NCI In Vivo Anticancer Drug Screen. Data for tumor model P388 Leukemia (intraperitoneal) in CD2F1 (CDF1) mice. Conditions: endpoint: median survival time, higher = longer survival. The method in brief: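 Mice carrying the transplanted tumor received test compound or vehicle. Survival was recorded in each group, and the value is the treated-group measurement divided by that of the vehicle-treated control group.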

Setting [1] is: dose: 50.0 mg/kg/injection, schedule: Q01DX005 (ip), vehicle: Klucel (hydroxypropylcellulose) (HPC).
Setting [2] is: dose: 100.0 mg/kg/injection, schedule: Q01DX005 (ip), vehicle: Klucel (hydroxypropylcellulose) (HPC).
[3] abbreviates: dose: 60.0 mg/kg/injection, schedule: Q01DX005 (ip), vehicle: saline.
[4] abbreviates: dose: 120.0 mg/kg/injection, schedule: Q01DX005 (ip), vehicle: saline.
Where [5] appears, read: dose: 240.0 mg/kg/injection, schedule: Q01DX005 (ip), vehicle: saline.
Setting [6] is: dose: 60.0 mg/kg/injection, schedule: Q01DX005 (ip), vehicle: saline with Tween-80.
Setting [7] is: dose: 120.0 mg/kg/injection, schedule: Q01DX005 (ip), vehicle: saline with Tween-80.
Where [8] appears, read: dose: 60.0 mg/kg/injection, schedule: Q01DX005 (ip), vehicle: Klucel (hydroxypropylcellulose) (HPC).
The mark [9] stands for this setting: dose: 50.0 mg/kg/injection, schedule: Q01DX005 (ip), vehicle: saline with Tween-80.
The mark [10] stands for this setting: dose: 100.0 mg/kg/injection, schedule: Q01DX005 (ip), vehicle: saline with Tween-80.
The mark [11] stands for this setting: dose: 6.25 mg/kg/injection, schedule: Q01DX005 (ip), vehicle: Klucel (hydroxypropylcellulose) (HPC).
The mark [12] stands for this setting: dose: 12.5 mg/kg/injection, schedule: Q01DX005 (ip), vehicle: Klucel (hydroxypropylcellulose) (HPC).
Setting [13] is: dose: 25.0 mg/kg/injection, schedule: Q01DX005 (ip), vehicle: Klucel (hydroxypropylcellulose) (HPC).

In the case of `N#Cc1ccc(NN=NCCOCCCl)cc1`, the T/C is, setting by setting: (dose: 6.25 mg/kg/injection, schedule: Q01DX009 (ip), vehicle: distilled water + Tween-80) 97 % of control; (dose: 12.5 mg/kg/injection, schedule: Q01DX009 (ip), vehicle: distilled water + Tween-80) 107 % of control; (dose: 25.0 mg/kg/injection, schedule: Q01DX009 (ip), vehicle: distilled water + Tween-80) 104 % of control; (dose: 50.0 mg/kg/injection, schedule: Q01DX009 (ip), vehicle: distilled water + Tween-80) 103 % of control; (dose: 100.0 mg/kg/injection, schedule: Q01DX009 (ip), vehicle: distilled water + Tween-80) 104 % of control.

Take `Nc1cccc2c1C(=O)c1ccc(C(=O)O)cc1C2=O`: the T/C by setting is: under setting [1], 101 % of control; under setting [2], 104 % of control.

With `Nc1cc(-c2ccccc2)cn1-c1nnc(-c2ccc(Br)cc2)s1`, the T/C runs as follows: (dose: 100.0 mg/kg/injection, schedule: Q01DX001 (ip), vehicle: Klucel (hydroxypropylcellulose) (HPC)) 101 % of control; (dose: 200.0 mg/kg/injection, schedule: Q01DX001 (ip), vehicle: Klucel (hydroxypropylcellulose) (HPC)) 100 % of control; (dose: 400.0 mg/kg/injection, schedule: Q01DX001 (ip), vehicle: Klucel (hydroxypropylcellulose) (HPC)) 99 % of control.

Turning to `OCC1OC(n2ncc3ccccc32)C(O)C1O` (stereo not given), the T/C by setting is: (dose: 6.25 mg/kg/injection, schedule: Q01DX009 (ip), vehicle: saline with Tween-80) 97 % of control; (dose: 12.5 mg/kg/injection, schedule: Q01DX009 (ip), vehicle: saline with Tween-80) 92 % of control; (dose: 25.0 mg/kg/injection, schedule: Q01DX009 (ip), vehicle: saline with Tween-80) 106 % of control; (dose: 32.0 mg/kg/injection, schedule: Q01DX002 (ip), vehicle: saline with Tween-80) 114 % of control and 90 % of control; (dose: 50.0 mg/kg/injection, schedule: Q01DX009 (ip), vehicle: saline with Tween-80) 106 % of control; (dose: 64.0 mg/kg/injection, schedule: Q01DX002 (ip), vehicle: saline with Tween-80) 106 % of control. Besides, the T/C (dose: 100.0 mg/kg/injection, schedule: Q01DX009 (ip), vehicle: saline with Tween-80) was 100 % of control; the T/C (dose: 128.0 mg/kg/injection, schedule: Q01DX002 (ip), vehicle: saline with Tween-80) is 112 % of control and 116 % of control.

Turning to `Cc1nnc2c([N+](=O)[O-])c(N)c(Cl)nn12`, the T/C (dose: 7.5 mg/kg/injection, schedule: Q01DX005 (ip), vehicle: saline with Tween-80) is 118 % of control and the T/C (dose: 15.0 mg/kg/injection, schedule: Q01DX005 (ip), vehicle: saline with Tween-80) was 113 % of control.

On to `CCc1[nH]nc(-c2n[nH]c(CC)c2C)c1C`, for which the T/C was 100 % of control under setting [3], 102 % of control under setting [4] and 98 % of control under setting [5].

Consider `CC12CCC(C3(C)CCC4CC3(O)C4)C(CO)C1CCC2=O` (stereo not given), for which the T/C (dose: 7.5 mg/kg/injection, schedule: Q01DX005 (ip), vehicle: Klucel (hydroxypropylcellulose) (HPC)) is 96 % of control; the T/C (dose: 15.0 mg/kg/injection, schedule: Q01DX005 (ip), vehicle: Klucel (hydroxypropylcellulose) (HPC)) was 103 % of control; the T/C (dose: 30.0 mg/kg/injection, schedule: Q01DX005 (ip), vehicle: Klucel (hydroxypropylcellulose) (HPC)) was 98 % of control.

Take `CCC1(c2ccc(C)cc2)C(=O)NC(=S)NC1=O`: the T/C was 102 % of control under setting [6] and 94 % of control under setting [7].

With `COc1ccc2c(c1)[C@@]13CCCC[C@H]1[C@@H](C2)[N+](C)=CC3=NO`, the T/C under setting [8] is 105 % of control.

Consider `CCOC(=O)C1CN2C(=O)CCC2C1=O` (stereo not given), for which the T/C reads like this: under setting [3], 104 % of control; under setting [4], 103 % of control; under setting [5], 103 % of control.

Consider `CCCC(CC(=O)O)c1c2c(c(O)c3c1OC(C)C(C)C3=O)C=CC(C)(C)O2` (stereo not given), for which the T/C is, setting by setting: under setting [8], 97 % of control; (dose: 120.0 mg/kg/injection, schedule: Q01DX005 (ip), vehicle: Klucel (hydroxypropylcellulose) (HPC)) 103 % of control; (dose: 240.0 mg/kg/injection, schedule: Q01DX005 (ip), vehicle: Klucel (hydroxypropylcellulose) (HPC)) 93 % of control.

Regarding `CCN(CC)c1ccc2nc3ccc(=[N+](CC)CC)cc-3oc2c1`, the T/C runs as follows: (dose: 7.5 mg/kg/injection, schedule: Q01DX005 (ip), vehicle: saline) 105 % of control; (dose: 15.0 mg/kg/injection, schedule: Q01DX005 (ip), vehicle: saline) 109 % of control.

Consider `CC(C)C(NC(=O)c1ccccc1)C(=O)O` (stereo not given), for which the T/C was 98 % of control under setting [9]; 93 % of control under setting [10]; 88 % of control (dose: 200.0 mg/kg/injection, schedule: Q01DX005 (ip), vehicle: saline with Tween-80).

Take `CN1CCOP(=O)(Oc2ccccc2)N1` (stereo not given): the T/C reads like this: under setting [6], 103 % of control; under setting [7], 99 % of control; (dose: 240.0 mg/kg/injection, schedule: Q01DX005 (ip), vehicle: saline with Tween-80) 100 % of control.

Consider `CCCCCCCN(CCCCCCC)C(=N)c1ccnc2ccccc12`, for which the T/C under setting [11] was 101 % of control, the T/C under setting [12] was 99 % of control and the T/C under setting [13] was 100 % of control.

Take `Cc1cc(=O)[nH]c(SCC(=O)c2ccccc2)n1`: the T/C is 102 % of control under setting [1]; 99 % of control under setting [2]; 102 % of control (dose: 200.0 mg/kg/injection, schedule: Q01DX005 (ip), vehicle: Klucel (hydroxypropylcellulose) (HPC)).

For the compound `COC(=O)c1nc(=S)[nH]c(C(=O)OC)c1C(=O)c1ccc(N2CCN(c3ccc(C(=O)c4c(C(=O)OC)nc(=S)[nH]c4C(=O)OC)cc3)CC2)cc1`, the T/C runs as follows: (dose: 60.0 mg/kg/injection, schedule: Q01DX005 (ip), vehicle: suspension in saline) 99 % of control; (dose: 120.0 mg/kg/injection, schedule: Q01DX005 (ip), vehicle: suspension in saline) 97 % of control; (dose: 240.0 mg/kg/injection, schedule: Q01DX005 (ip), vehicle: suspension in saline) 100 % of control.

Consider `O=C(O)c1cc(=O)c2c(OCC(O)COc3cccc4oc(C(=O)O)cc(=O)c34)cccc2o1.[Cu+2]`, for which the T/C is 99 % of control (dose: 12.5 mg/kg/injection, schedule: Q04DX002 (ip), vehicle: Klucel (hydroxypropylcellulose) (HPC)); 96 % of control (dose: 25.0 mg/kg/injection, schedule: Q04DX002 (ip), vehicle: Klucel (hydroxypropylcellulose) (HPC)); 95 % of control (dose: 50.0 mg/kg/injection, schedule: Q04DX002 (ip), vehicle: Klucel (hydroxypropylcellulose) (HPC)).

In the case of `CSc1nc(Cl)c(Cl)c(C(F)(F)F)n1`, the T/C under setting [9] was 103 % of control.

`Nc1c[n+]([O-])ccn1`: the T/C by setting is: (dose: 100.0 mg/kg/injection, schedule: Q04DX003 (ip), vehicle: saline) 101 % of control; (dose: 200.0 mg/kg/injection, schedule: Q04DX003 (ip), vehicle: saline) 98 % of control; (dose: 400.0 mg/kg/injection, schedule: Q04DX003 (ip), vehicle: saline) 93 % of control.

For `O=C(N/N=C/c1c(O)ccc2ccccc12)C(=O)N/N=C/c1c(O)ccc2ccccc12`, the T/C (dose: 12.5 mg/kg/injection, schedule: Q01DX005 (ip), vehicle: saline with Tween-80) is 97 % of control; the T/C (dose: 25.0 mg/kg/injection, schedule: Q01DX005 (ip), vehicle: saline with Tween-80) was 94 % of control; the T/C under setting [9] is 121 % of control; the T/C under setting [10] was 186 % of control.

Regarding `C1=CCC(CC[Si]23OCCN(CCO2)CCO3)CC1` (stereo not given), the T/C is 103 % of control under setting [12]; 96 % of control under setting [13]; 101 % of control and 96 % of control under setting [1].

Turning to `Cc1cc(O)c2c(c1)C(=O)C(c1c(C)cc3c(c1O)C(=O)C1OC1C3=O)=CC2=O` (stereo not given), the T/C (dose: 0.78 mg/kg/injection, schedule: Q01DX005 (ip), vehicle: Klucel (hydroxypropylcellulose) (HPC)) was 91 % of control; the T/C (dose: 1.56 mg/kg/injection, schedule: Q01DX005 (ip), vehicle: Klucel (hydroxypropylcellulose) (HPC)) was 106 % of control; the T/C (dose: 3.12 mg/kg/injection, schedule: Q01DX005 (ip), vehicle: Klucel (hydroxypropylcellulose) (HPC)) is 113 % of control; the T/C under setting [11] was 100 % of control.
